What was measured:
5-HT transporter (SERT) = 5-HT transporter (SERT) (Homo sapiens, UniProt P31645); details: cited from earlier work
[1] = Spontaneously reported adverse events after treatment; assay type: in vivo, human; details: for type and amount of adverse events, psilocybin versus LSD: in vivo; for flash back episodes: within 72 hours after administration, nine episodes in five subjects
Protocol: (§1) The subjects then underwent baseline measurements.
In addition to the adverse effects systematically assessed with the list of complaints, there were spontaneously reported adverse events after LSD or psilocybin administration as assessed in the evening of the treatment day or within 48 hours after treatment. These adverse after effects after psilocybin or LSD administration included headaches (four subjects after psilocybin and three after LSD), migraine attack (one subject after LSD), nosebleeds (one subject after psilocybin), low mood (two subjects after psilocybin and two subjects after LSD), nausea (two subjects after psilocybin and one subject after LSD), nightmares (one subject after psilocybin), restlessness (one subject after psilocybin and one subject after LSD), vivid dreams (one subject after LSD), insomnia (one subject after psilocybin), involuntary movement in lower extremities (one subject after LSD). Nine flash back episodes occurred in five subjects (one to 20 times within 72 hours after substance administration), five episodes occurred after LSD administration, four episodes occurred after psilocybin administration.

[2] = Endocrine effects: plasma cortisol and prolactin (PRL); assay type: in vivo, human; details: 2.5 hours after administration
Protocol: as §1
Endocrine effects: Plasma concentrations of cortisol, prolactin (PRL), oxytocin, and brain-derived neurotrophic factor (BDNF) were determined as described elsewhere (Holze et al., 2021; Schmid et al., 2015). Cortisol and PRL were measured before and 2.5 hours after drug administration. BDNF was measured before and three times after drug administration.
The criterion for significance was p<0.05.

[3] = Dose equivalence of LSD and psilocybin extrapolated from acute effects; assay type: in vivo, human; details: LSD 200 μg
[4] = 75 μg LSD base in saline i.v., previous studies; cited from earlier work
[5] = biological target: serotonin (5-HT)2A receptors (Homo sapiens, UniProt P28223); details: cited from earlier work
Sequence of serotonin (5-HT)2A receptors (P28223 whole entry): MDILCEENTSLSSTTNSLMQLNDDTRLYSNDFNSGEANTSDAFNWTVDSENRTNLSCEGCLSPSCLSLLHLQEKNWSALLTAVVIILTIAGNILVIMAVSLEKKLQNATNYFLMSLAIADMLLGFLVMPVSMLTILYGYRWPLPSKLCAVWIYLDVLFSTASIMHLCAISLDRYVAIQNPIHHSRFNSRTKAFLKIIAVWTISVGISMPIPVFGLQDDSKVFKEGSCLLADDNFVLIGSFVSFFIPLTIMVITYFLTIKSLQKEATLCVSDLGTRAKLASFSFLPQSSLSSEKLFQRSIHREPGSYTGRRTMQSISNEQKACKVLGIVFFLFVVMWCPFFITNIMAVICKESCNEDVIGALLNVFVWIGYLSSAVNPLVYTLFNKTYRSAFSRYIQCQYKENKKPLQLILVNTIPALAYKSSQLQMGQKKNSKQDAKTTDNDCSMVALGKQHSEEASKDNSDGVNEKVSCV

D1-3 receptors = details: cited from earlier work
[6] = after the 200 μg dose as two 100 μg LSD capsules (Steuer et al., 2017); cited from earlier work
[7] = four unused old LSD capsules, years after study completion; cited from earlier work
[8] = Acute adverse effects, 66-item List of Complaints; details: for headache, number of subjects reporting: 0-12 hours, high dose; for headache, number of subjects reporting / balance disturbed, number of subjects / dry mouth, number of subjects reporting: 28 subjects
[9] = Adjective Mood Rating Scale (AMRS) in healthy subjects
[10] = Mystical Experience Questionnaire (MEQ43 and MEQ30) in healthy subjects; details: LSD 200 μg; MEQ43 p=0.002, MEQ30 p=0.015
[11] = Plasma exposure of LSD and iso-LSD after LSD capsules in previous studies; details: similar bioavailability assumed
[12] = Subjective drug effects on visual analog scales (VAS) in healthy subjects
[13] = 5 Dimensions of Altered States of Consciousness Scale (5D-ASC) in healthy subjects
[14] = Autonomic effects (blood pressure, heart rate, body temperature, pupil) in healthy subjects; details: for rate pressure product: high dose of both substances
[15] = evening of treatment day or within 48 hours

Sequence of 5-HT transporter (SERT) (P31645 whole entry, species assumed): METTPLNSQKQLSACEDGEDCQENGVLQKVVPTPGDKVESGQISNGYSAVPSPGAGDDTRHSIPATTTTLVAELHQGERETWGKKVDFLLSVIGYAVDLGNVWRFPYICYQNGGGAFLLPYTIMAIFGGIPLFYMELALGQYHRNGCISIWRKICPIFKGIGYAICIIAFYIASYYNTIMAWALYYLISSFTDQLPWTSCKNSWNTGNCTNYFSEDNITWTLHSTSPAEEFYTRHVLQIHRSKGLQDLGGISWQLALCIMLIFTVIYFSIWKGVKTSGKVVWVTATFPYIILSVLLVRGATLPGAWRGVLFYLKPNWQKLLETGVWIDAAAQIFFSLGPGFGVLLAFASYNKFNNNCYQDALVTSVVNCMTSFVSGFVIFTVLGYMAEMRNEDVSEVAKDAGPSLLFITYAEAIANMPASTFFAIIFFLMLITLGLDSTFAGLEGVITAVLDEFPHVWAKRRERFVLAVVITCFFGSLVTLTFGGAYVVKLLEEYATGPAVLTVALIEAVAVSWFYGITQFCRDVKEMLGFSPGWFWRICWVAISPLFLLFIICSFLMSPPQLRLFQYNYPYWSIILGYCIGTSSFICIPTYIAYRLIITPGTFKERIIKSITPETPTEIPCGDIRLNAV

SMILES: CN(C)CCc1c[nH]c2cccc(O)c12 [Psilocin, psilocin]
- action on the 5-HT transporter (SERT) (5-HT transporter (SERT)): inhibits

SMILES: CCN(CC)C(=O)[C@@H]1C=C2c3cccc4[nH]cc(c34)C[C@H]2N(C)C1 [LSD, lysergic acid diethylamide]
- headaches, spontaneously reported [1, 15]: three
- involuntary movement in lower extremities, spontaneously reported [1, 15]: one
- low mood, spontaneously reported [1, 15]: two
- migraine attack, spontaneously reported [1, 15]: one
- nausea, spontaneously reported [1, 15]: one
- restlessness, spontaneously reported [1, 15]: one
- vivid dreams, spontaneously reported [1, 15]: one
- type and amount of adverse events, psilocybin versus LSD [1]: comparable
- flash back episodes [1]: five
- PRL plasma concentrations [2]: significantly increased
- cortisol plasma concentrations [2]: significantly increased
- overall strength versus the 30 mg psilocybin dose [3]: overall stronger
- clinical response to 75 μg intravenous LSD versus oral 100 μg dose [4]: not significantly different
- binding to 5-HT2A receptors [5]: bind
- action on D1-3 receptors (D1-3 receptors): stimulates
- plasma AUC24 [6]: 21 ng·h/mL
- remaining amount of LSD in capsules [7]: 22 ± 7 µg
- headache, number of subjects reporting [8]: 13 subjects
- balance disturbed, number of subjects [8]: 16 subjects
- dry mouth, number of subjects reporting [8]: 15 subjects
- frequency of acute adverse effects, LSD versus psilocybin ([8]; in vivo): equally frequent
- most frequent acute adverse effects ([8]; in vivo): fatigue, headache, lack of concentration, lack of energy, dullness, feeling week, loss of appetite, dry mouth, and impaired balance
- total number of acute complaints, 100 versus 200 μg LSD ([8]; in vivo): did not differ
- AMRS emotional excitation versus 15 mg or 30 mg psilocybin ([9]; LSD 100 and 200 μg): greater
- AMRS extraversion ratings versus placebo ([9]; all doses): decrease
- AMRS inactivation ratings versus placebo ([9]; all doses): significantly and similarly increased
- AMRS introversion ratings versus placebo ([9]; all doses): increased
- AMRS self-rated anxiety ([9]; both doses of LSD (100 and 200 μg)): slightly but significantly increased
- MEQ ineffability ratings versus 30 mg psilocybin [10]: significantly greater
- AUC∞ as percent of the value expected from confirmed 96 μg LSD doses ([11]; 100 μg dose): 61%
- AUC∞ as percent of the value expected from confirmed 96 μg LSD doses ([11]; 200 μg dose): 76%
- dose-response curve of subjective effects ([12]; 15-30 mg psilocybin range compared to 100-200 μg LSD range): plateau effect
- overall effects and positive drug effects, 200 μg versus 100 μg LSD ([12]; LSD 100 and 200 μg oral): comparable positive drug effects
- bad drug effects, 200 μg versus 100 μg LSD ([12]; human, in vivo): more
- ego dissolution (VAS), 200 μg versus 100 μg LSD ([12]; p=0.014): more and greater
- anxiety (VAS), 200 μg versus 100 μg LSD ([12]; p=0.054): more and near-significantly greater
- alterations of the mind in the 5D-ASC scale ([13]; human, in vivo): marked alterations of the mind
- 5D-ASC AED (anxious ego dissolution), 200 μg versus 100 μg LSD ([13]; p=0.02): greater
- 5D-ASC anxiety, 200 μg versus 100 μg LSD ([13]; p=0.03): greater
- 5D-ASC impairments of control and cognition, 200 μg versus 100 μg LSD ([13]; p=0.04): greater
- increase in heart rate versus psilocybin 30 mg ([14]; LSD 200 μg, p=0.002): significantly more
- rate pressure product [14]: similarly increased

SMILES: CCN(CC)C(=O)[C@H]1C=C2c3cccc4[nH]cc(c34)C[C@H]2N(C)C1 [iso-LSD]
- plasma AUC24 [6]: 9.2 ng·h/mL

SMILES: CN(C)CCc1c[nH]c2cccc(OP(=O)(O)O)c12 [psilocybin]
- headaches, spontaneously reported [1, 15]: four
- insomnia, spontaneously reported [1, 15]: one
- low mood, spontaneously reported [1, 15]: two
- nausea, spontaneously reported [1, 15]: two
- nightmares, spontaneously reported [1, 15]: one
- nosebleeds, spontaneously reported [1, 15]: one
- restlessness, spontaneously reported [1, 15]: one
- type and amount of adverse events, psilocybin versus LSD [1]: comparable
- flash back episodes [1]: four
- headache, number of subjects reporting [8]: 18 subjects
- balance disturbed, number of subjects [8]: 16 subjects
- dry mouth, number of subjects reporting [8]: 9 subjects
- frequency of acute adverse effects, LSD versus psilocybin ([8]; in vivo): equally frequent
- most frequent acute adverse effects ([8]; in vivo): fatigue, headache, lack of concentration, lack of energy, dullness, feeling week, loss of appetite, dry mouth, and impaired balance
- acute adverse effects versus LSD 100 μg ([8]; psilocybin 15 mg, p<0.01): fewer
- acute adverse effects versus psilocybin 30 mg ([8]; psilocybin 15 mg, p<0.1): trend toward fewer
- rate pressure product [14]: similarly increased
- increase in diastolic blood pressure versus LSD 200 μg ([14]; psilocybin 30 mg, p<0.001): more
- increase in systolic blood pressure versus LSD 200 μg ([14]; psilocybin 30 mg, p=0.04): more

Reference: patent publication US20230039395A1, “LSD AND […] EQUIVALENCE DETERMINATION” (Universitätsspital Basel, priority 2021, published 2023)
